Measurements published in US20240101551A1, “CRYSTAL FORM AND SALT FORM OF BROMINE DOMAIN PROTEIN INHIBITOR AND PREPARATION METHOD THEREFOR” (CHIA TAI TIANQING PHARMACEUTICAL GROUP CO., LTD., priority 2020, published 2024).

Assay: Study on stability under influencing factors (high temperature, high humidity, light) of the crystal forms
Type: physicochemical
Procedure: In order to evaluate the solid stability of the crystal forms of the present application, the stability of each of the crystal form I, the crystal form A, the crystal form D, the crystal form E and the crystal form F under influencing factors (high temperature, high humidity and light) was investigated. Each of the crystal forms was stored under the high temperature condition (60±2° C., open (weighing bottle)), and the high humidity condition (room temperature, 92.5%±5% RH, open (weighing bottle) and packaged) for 5 days, 10 days and 30 days, and under the ICH light condition (5500 Lux, 0.9 w/m^2, closed (weighing bottle) and packaged) for 5 days and 10 days. The inner packaging material of the packaged sample was a medical low-density polyethylene bag, and the outer packaging material is a medical polyester/aluminum/polyethylene composite bag. The samples after the storage were characterized by properties, purity (HPLC), crystal form (XRD) and water content to detect the changes in the crystal form and purity. The results are shown in Tables 8-12 (“^#” indicates the ICH condition).

[1] = 92.5% RH, room temperature, open, 10 days
[2] = 92.5% RH, room temperature, open, 30 days
[3] = Light (ICH, 5500 Lux), closed, 10 days

- Impurity content (60° C., open, 5 days): 1.23%
- Crystal form change (60° C., open, 10 days): Unchanged
- Impurity content (60° C., open, 10 days): 1.21%
- Water content (60° C., open, 10 days): 0.19%
- Crystal form change (60° C., open, 30 days): Unchanged
- Impurity content (60° C., open, 30 days): 1.31%
- Water content (60° C., open, 30 days): 0.15%
- Crystal form change (92.5% RH, packaged, 30 days): Unchanged
- Impurity content (92.5% RH, packaged, 30 days): 1.32%
- Water content (92.5% RH, packaged, 30 days): 0.23%
- Impurity content (92.5% RH, room temperature, open, 5 days): 1.23%
- Crystal form change [1]: Unchanged
- Impurity content [1]: 1.23%
- Water content [1]: 0.36%
- Crystal form change [2]: Unchanged
- Impurity content [2]: 1.30%
- Water content [2]: 0.31%
- Crystal form change (Light (ICH), packaged, 10 days): Unchanged
- Impurity content (Light (ICH), packaged, 10 days): 1.21%
- Water content (Light (ICH), packaged, 10 days): 0.30%
- Impurity content (Light (ICH, 5500 Lux), closed, 5 days): 1.18%
- Crystal form change [3]: Unchanged
- Impurity content [3]: 1.21%
- Water content [3]: 0.34%
- Impurity content (starting crystal form): 1.20%
- Water content (starting crystal form): 0.39%
Compound: Cn1cc(-c2nc(N=S(C)(C)=O)ccc2Oc2ccc(F)cc2F)c2cc[nH]c2c1=O [crystal form I]
